# Reference: patent US8952024B2, “Herbicidal pyrimidone derivatives” (E I du Pont de Nemours and Company, priority 2009, dated 2015)
# Experiments:
# Format in all cases: in vivo
# [1] = system: barnyardgrass (Echinochloa crus-galli); assay: Test A pre-/postemergence plant response; details: for Barnyardgrass plant response rating: visual injury, 0 to 100 scale (0 no effect, 100 complete control), approx. ten days
# Procedure, shortened: (§1)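 Approximately ten days after concurrent pre- and postemergence spraying in a greenhouse, plants were compared with untreated controls and rated visually for injury, 0 = no effect to 100 = complete control. Preemergence spray was directed onto loam/sand soil; postemergence targeted 1–2 leaf seedlings.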
# corn (Zea mays) = assay: Test A pre-/postemergence plant response; details: for Corn plant response rating: visual injury, 0 to 100 scale (0 no effect, 100 complete control), approx. ten days
# Procedure, shortened: as §1
# [2] = system: giant foxtail (Setaria faberii); assay: Test A pre-/postemergence plant response
# Procedure, shortened: as §1
# [3] = system: large crabgrass (Digitaria sanguinalis); assay: Test A pre-/postemergence plant response; details: for Crabgrass, Large plant response rating: visual injury, 0 to 100 scale (0 no effect, 100 complete control), approx. ten days
# Procedure, shortened: as §1
# [4] = system: morningglory (Ipomoea spp.); assay: Test A pre-/postemergence plant response
# Procedure, shortened: as §1
# [5] = system: pigweed (Amaranthus retroflexus); assay: Test A pre-/postemergence plant response
# Procedure, shortened: as §1
# [6] = system: velvetleaf (Abutilon theophrasti); assay: Test A pre-/postemergence plant response
# Procedure, shortened: as §1
# [7] = system: wheat (Triticum aestivum); assay: Test A pre-/postemergence plant response
# Procedure, shortened: as §1
# [8] = system: barnyardgrass (Echinochloa crus-galli); assay: Test B flooded paddy test; details: for Plant response rating, Barnyardgrass: Flood (flooded paddy test), 13 to 15 days; for Barnyardgrass plant response rating: Flood, 31 g ai/ha, scale 0 to 100 (0 no effect, 100 complete control)
# Procedure, shortened: (§2)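 Visual scores run from 0 (no effect) to 100 (complete control), assigned by comparison with controls 13 to 15 days after treatment. Test compounds went straight into water standing 3 cm above the soil, around plants at the 2-leaf stage kept in a greenhouse.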
# [9] = system: ducksalad (Heteranthera limosa); assay: Test B flooded paddy test; details: for Plant response rating, Ducksalad: Flood (flooded paddy test), 13 to 15 days; for Ducksalad plant response rating: Flood, 31 g ai/ha, scale 0 to 100 (0 no effect, 100 complete control)
# Procedure, shortened: as §2
# rice (Oryza sativa) = assay: Test B flooded paddy test; details: for Plant response rating, Rice: Flood (flooded paddy test), 13 to 15 days; for Rice plant response rating: Flood, 31 g ai/ha, scale 0 to 100 (0 no effect, 100 complete control)
# Procedure, shortened: as §2
# [10] = system: umbrella sedge (Cyperus difformis); assay: Test B flooded paddy test; details: for Plant response rating, Sedge, Umbrella: Flood (flooded paddy test), 13 to 15 days; for Sedge, Umbrella plant response rating: Flood, 31 g ai/ha, scale 0 to 100 (0 no effect, 100 complete control)
# Procedure, shortened: as §2
# [11] = Postemergence, 125 g ai/ha, 0 to 100 scale where 0 is no effect and 100 is complete control
# [12] = Preemergence, 125 g ai/ha, 0 to 100 scale where 0 is no effect and 100 is complete control, approximately ten days
# [13] = Preemergence, 500 g ai/ha, 0 to 100 scale, 0 = no effect, 100 = complete control
# [14] = Postemergence, 125 g ai/ha, visual injury, 0 to 100 scale (0 no effect, 100 complete control), approx. ten days
# [15] = Postemergence, 500 g ai/ha, visual injury, 0 to 100 scale (0 no effect, 100 complete control), approx. ten days
# [16] = 250 g ai/ha, flooded paddy test, visual rating on 0 to 100 scale (0 no effect, 100 complete control) after 13 to 15 days
# [17] = 62 g ai/ha, scale of 0 to 100 where 0 is no effect and 100 is complete control
# [18] = 125 g ai/ha, scale 0 to 100, 0 is no effect, 100 is complete control
# [19] = Preemergence, 125 g ai/ha, 0 to 100 scale, 0 = no effect, 100 = complete control
smiles,measurement,setting,value
O=C(C1=C(O)C2CCC(C2)C1=O)c1cnc(-c2ccccc2)n(CC2CCCO2)c1=O (centres unmarked) [Compound 250],"Plant response rating, Barnyardgrass",[1]; [11],50
same,Barnyardgrass plant response rating,"[1]; Postemergence, 500 g ai/ha",100
same,"Plant response rating, Barnyardgrass",[1]; [12],0
same,"Plant response rating, Barnyardgrass",[1]; [13],40
same,"Plant response rating, Corn",corn (Zea mays); [11],0
same,Corn plant response rating,"corn (Zea mays); Postemergence, 500 g ai/ha",70
same,"Plant response rating, Corn",corn (Zea mays); [12],0
same,"Plant response rating, Corn",corn (Zea mays); [13],0
same,"Plant response rating, Foxtail, Giant",[2]; [14],90
same,"Foxtail, Giant plant response rating",[2]; [15],100
same,"Plant response rating, Foxtail, Giant",[2]; [12],30
same,"Plant response rating, Foxtail, Giant",[2]; [13],60
same,"Plant response rating, Crabgrass, Large",[3]; [11],60
same,"Crabgrass, Large plant response rating","[3]; Postemergence, 500 g ai/ha",100
same,"Plant response rating, Crabgrass, Large",[3]; [12],30
same,"Plant response rating, Crabgrass, Large",[3]; [13],90
same,"Plant response rating, Morningglory",[4]; [14],100
same,Morningglory plant response rating,[4]; [15],100
same,"Plant response rating, Morningglory",[4]; [12],10
same,"Plant response rating, Morningglory",[4]; [13],60
same,"Plant response rating, Pigweed",[5]; [14],100
same,Pigweed plant response rating,[5]; [15],100
same,"Plant response rating, Pigweed",[5]; [12],60
same,"Plant response rating, Pigweed",[5]; [13],100
same,"Plant response rating, Velvetleaf",[6]; [14],100
same,Velvetleaf plant response rating,[6]; [15],100
same,"Plant response rating, Velvetleaf",[6]; [12],50
same,"Plant response rating, Velvetleaf",[6]; [13],90
same,"Plant response rating, Wheat",[7]; [14],0
same,Wheat plant response rating,[7]; [15],20
same,"Plant response rating, Wheat",[7]; [12],0
same,"Plant response rating, Wheat",[7]; [13],10
same,"Plant response rating, Flood, Barnyardgrass",[8]; [16],10
same,"Plant response rating, Barnyardgrass",[8]; [17],0
same,"Plant response rating, Barnyardgrass",[8]; [18],10
same,Barnyardgrass plant response rating,[8],0
same,"Plant response rating, Flood, Ducksalad",[9]; [16],75
same,"Plant response rating, Ducksalad",[9]; [17],30
same,"Plant response rating, Ducksalad",[9]; [18],70
same,Ducksalad plant response rating,[9],30
same,"Plant response rating, Flood, Rice",rice (Oryza sativa); [16],0
same,"Plant response rating, Rice",rice (Oryza sativa); [17],0
same,"Plant response rating, Rice",rice (Oryza sativa); [18],0
same,Rice plant response rating,rice (Oryza sativa),0
same,"Plant response rating, Flood, Sedge, Umbrella",[10]; [16],70
same,"Plant response rating, Sedge, Umbrella",[10]; [17],65
same,"Plant response rating, Sedge, Umbrella",[10]; [18],65
same,"Sedge, Umbrella plant response rating",[10],0
COc1ccc(-n2c(-c3cccc(Br)c3)ncc(C(=O)C3=C(O)CCCC3=O)c2=O)cc1 [Compound 176],"Plant response rating, Barnyardgrass",[1]; [11],50
same,Barnyardgrass plant response rating,"[1]; Postemergence, 500 g ai/ha",90
same,"Plant response rating, Barnyardgrass",[1]; [19],10
same,"Plant response rating, Barnyardgrass",[1]; [13],30
same,"Plant response rating, Corn",corn (Zea mays); [11],0
same,Corn plant response rating,"corn (Zea mays); Postemergence, 500 g ai/ha",10
same,"Plant response rating, Corn",corn (Zea mays); [19],0
same,"Plant response rating, Corn",corn (Zea mays); [13],0
same,"Plant response rating, Foxtail, Giant",[2]; [11],10
same,"Foxtail, Giant plant response rating",[2]; [15],70
same,"Plant response rating, Foxtail, Giant",[2]; [19],10
same,"Plant response rating, Foxtail, Giant",[2]; [13],50
same,"Plant response rating, Crabgrass, Large",[3]; [11],10
same,"Crabgrass, Large plant response rating","[3]; Postemergence, 500 g ai/ha",60
same,"Plant response rating, Crabgrass, Large",[3]; [19],0
same,"Plant response rating, Crabgrass, Large",[3]; [13],20
same,"Plant response rating, Morningglory",[4]; [11],0
same,Morningglory plant response rating,[4]; [15],50
same,"Plant response rating, Morningglory",[4]; [19],0
same,"Plant response rating, Morningglory",[4]; [13],20
same,"Plant response rating, Pigweed",[5]; [11],100
same,Pigweed plant response rating,[5]; [15],100
same,"Plant response rating, Pigweed",[5]; [19],60
same,"Plant response rating, Pigweed",[5]; [13],100
same,"Plant response rating, Velvetleaf",[6]; [11],80
same,Velvetleaf plant response rating,[6]; [15],90
same,"Plant response rating, Velvetleaf",[6]; [19],10
same,"Plant response rating, Velvetleaf",[6]; [13],50
same,"Plant response rating, Wheat",[7]; [11],0
same,Wheat plant response rating,[7]; [15],0
same,"Plant response rating, Wheat",[7]; [19],0
same,"Plant response rating, Wheat",[7]; [13],0
same,"Plant response rating, Barnyardgrass",[8]; [18],0
same,Barnyardgrass plant response rating,[8],0
same,"Plant response rating, Ducksalad",[9]; [18],75
same,Ducksalad plant response rating,[9],40
same,"Plant response rating, Rice",rice (Oryza sativa); [18],20
same,Rice plant response rating,rice (Oryza sativa),15
same,"Plant response rating, Sedge, Umbrella",[10]; [18],85
same,"Sedge, Umbrella plant response rating",[10],70
CCOCCn1c(-c2cc(F)cc(F)c2)ncc(C(=O)C2=C(O)CCCC2=O)c1=O [Compound 182],"Plant response rating, Barnyardgrass",[1]; [11],70
same,Barnyardgrass plant response rating,"[1]; Postemergence, 500 g ai/ha",90
same,"Plant response rating, Barnyardgrass",[1]; [19],70
same,"Plant response rating, Barnyardgrass",[1]; [13],90
same,"Plant response rating, Corn",corn (Zea mays); [11],0
same,Corn plant response rating,"corn (Zea mays); Postemergence, 500 g ai/ha",20
same,"Plant response rating, Corn",corn (Zea mays); [19],0
same,"Plant response rating, Corn",corn (Zea mays); [13],20
same,"Plant response rating, Foxtail, Giant",[2]; [11],50
same,"Foxtail, Giant plant response rating",[2]; [15],80
same,"Plant response rating, Foxtail, Giant",[2]; [19],50
same,"Plant response rating, Foxtail, Giant",[2]; [13],80
same,"Plant response rating, Crabgrass, Large",[3]; [11],80
same,"Crabgrass, Large plant response rating","[3]; Postemergence, 500 g ai/ha",90
same,"Plant response rating, Crabgrass, Large",[3]; [19],100
same,"Plant response rating, Crabgrass, Large",[3]; [13],100
same,"Plant response rating, Morningglory",[4]; [11],100
same,Morningglory plant response rating,[4]; [15],100
same,"Plant response rating, Morningglory",[4]; [19],70
same,"Plant response rating, Morningglory",[4]; [13],80
same,"Plant response rating, Pigweed",[5]; [11],80
same,Pigweed plant response rating,[5]; [15],100
same,"Plant response rating, Pigweed",[5]; [19],90
same,"Plant response rating, Pigweed",[5]; [13],100
same,"Plant response rating, Velvetleaf",[6]; [11],100
same,Velvetleaf plant response rating,[6]; [15],100
same,"Plant response rating, Velvetleaf",[6]; [19],70
same,"Plant response rating, Velvetleaf",[6]; [13],100
same,"Plant response rating, Wheat",[7]; [11],0
same,Wheat plant response rating,[7]; [15],50
same,"Plant response rating, Wheat",[7]; [19],0
same,"Plant response rating, Wheat",[7]; [13],50
same,"Plant response rating, Barnyardgrass",[8]; [18],0
same,Barnyardgrass plant response rating,[8],0
same,"Plant response rating, Ducksalad",[9]; [18],85
same,Ducksalad plant response rating,[9],60
same,"Plant response rating, Rice",rice (Oryza sativa); [18],0
same,Rice plant response rating,rice (Oryza sativa),0
same,"Plant response rating, Sedge, Umbrella",[10]; [18],75
same,"Sedge, Umbrella plant response rating",[10],50
